The test system of one assay is HT-22 cells. The experiment in a line: MTT analysis of cell survival under H2O2-induced oxidative stress. The format is cell-based. Conditions: without LED light. The protocol: The protection against apoptosis was analyzed using CCK-8 kit (Dojindo, Gaithersburg, Md.) and MTT as follows: HT-22 cells (5×10^5/ml) were plated on a 96-well plate and cultured in 100 µL of DMEM medium for 24 hours. Various concentrations of H2O2 were added to the cells, and the cells were cultured for 24 hours with LED irradiation of 660 nm. Then, 10 µL of MTT solution (5 mg/ml MTT in PBS) was added to each well and cultured at 37° C. for 2 hours. Absorbance was measured at 450 nm and 564 nm with a Victor multi label counter (Wallac, Turku, Finland).
The hippocampus HT-22 cell line was used to evaluate the effect of H2O2-induced oxidative stress on cell survival and apoptosis inhibitory effect by 660 nm of LED light (FIG. 2). […] In contrast, treatment with 660 nm of LED light increased cell survival rates to 88.4, 66.2, and 22.0%, respectively.

Assay [1] has as its system BDNF. Briefly: RT-PCR of BDNF expression in HT-22 cell. It counts as cell-based. Conditions: H2O2 treatment. The text has this: The used […] BDNF, forward [NT], and reverse [NT]; glutathione peroxidase (GPx), forward [NT], and reverse [NT]; superoxide dismutasee 1 (SOD1), forward [NT], and reverse [NT]; glutathione reductase (GR), forward [NT], and reverse [NT]; and h-GAPDH transfer [NT], reverse [NT]. All experiments were implemented three times.

Another assay concerns p-ERK and p-CREB. Briefly: Western blot analysis of ERK and CREB phosphorylation in HT-22 cells. The format is cell-based. The conditions noted are these: H2O2 treatment. The protocol: The level of protein expression was evaluated by Western blot analysis. Cells were dissolved and centrifuged at 16,000 g. Then, the supernatant was electrophoresed at 12% SDA-PAGE and transferred to a nitrocellulose membrane. After blocking with 5% skim milk among Tween (0.05%)/PBS for 1 hour, the membrane was detected with primary antibody and a horseradish peroxidase (HRP)-conjugated antibody. The immunoreactive band was visualized using West Femto Chemi-luminescent substrate (Thermo). Protein levels were standardized with -actin expression using ChemiDOC XRS+ (Bio-Rad, Hercules, Calif., USA).

Assay [2] has as its system BDNF. Conditions: PTSD-induced mice; cited from earlier work.

On to `OO` [H2O2], for which the figures for the cell survival rate in the assay with HT-22 cells (H2O2 100M), with HT-22 cells (H2O2 300M) and in the assay with HT-22 cells (H2O2 1000M) were 72.7%, 57.3% and 20.7%, respectively. In addition, the BDNF expression entry with BDNF [1] is reported as “reduced BDNF expression”. The “p-ERK and p-CREB levels” value in the assay with p-ERK and p-CREB was “increased p-ERK and p-CREB levels”.
`CNCCC(Oc1ccc(C(F)(F)F)cc1)c1ccccc1` (stereo not drawn) [fluoxetine]: in the assay with BDNF [2], the “expression of BDNF and exercise ability” value is recorded as “improved”.

The values are drawn from patent US20220257974A1, “PHOTOBIOMODULATION METHOD AND SYSTEM FOR INDUCING ACTIVITY OF BRAINDERIVED NERVE GROWTH FACTOR IN HIPPOCAMPAL TISSUE” (INDUSTRY ACADEMIC COOPERATION FOUNDATION KEIMYUNG UNIVERSITY, priority 2019, published 2022).
